Data: article PMC5321753, “Enhanced expression of ADCY1 underlies aberrant neuronal signalling and behaviour in a syndromic autism model” (Nature Communications, 2017)

Experiments:
ERK1/2 = assay: Immunoblot of phosphorylated and total ERK1/2 in hippocampus after i.p. injection; assay type: in vivo, mouse; conditions: NB001 1 mg kg^-1 IP
Description: (§1) Hippocampal tissues were collected from 3-month-(+/−10 days) old mice. […] The primers used for Adcy1 were […] (forward) and […] (reverse). The protein levels in hippocampal tissues collected from mice were determined by western blot using anti-ADCY1 (Sigma, Cat # SAB4500146-100UG, 1:1,000 dilution), anti-p-ERK1/2 (Cell Signaling, Cat # 9101L, 1:1,000 dilution), anti-pAkt (Cell Signaling, Cat # 9271, 1:1,000 dilution), anti-pS6K1 (Cell Signaling, Cat # 9204L for the detection of phosphorylation at Thr421/Ser424, Cat # 9234S for the detection of phosphorylation at Thr389, 1:1,000 dilution), anti-ERK1/2 (Cell Signaling, Cat # 9102L, 1:1,000 dilution), anti-Akt (Cell Signaling, Cat # 9272S, 1:1,000 dilution), anti-S6K1 (Cell Signaling, Cat # 9202L, 1:1,000 dilution) and anti-β-actin antibody (Sigma, Cat # A5441; 1:5,000 dilution). Following incubations with infrared fluorescence (IRDye)-conjugated secondary antibodies (1:5,000, LI-COR Biosciences, Cat # 926–32211 and 926–68070), signals were detected using the Odyssey system (LI-COR Biosciences). The un-cropped western blots are shown in Supplementary Fig. 10.
(§2) NB001 was dissolved in water to give a 25 mM stock solution. The stock was diluted in saline and IP injected into mice at 1 mg kg^−1 body weight. In all cases, the drug was administered 1 h before testing. Control mice were treated similarly but injected with saline.

S6K1 = assay: Immunoblot of phosphorylated and total S6K1 in hippocampus after i.p. injection; assay type: in vivo, mouse
Description: as §1, §2

WT and Fmr1 KO mice = assay: Light/dark test; assay type: in vivo, mouse
Description: Light/dark test was examined as described in our previous study. Light/dark test was performed using 3-month (+/−10 days) old mouse, which was first placed in the dark half of the chamber (Coulbourn Instruments). After 1 min of habituation, the trap door was opened and the mouse was allowed to move freely between the two chambers for 5 min. The time spent in each chamber and the number of entries into the lit side were recorded.
as §2
To inhibit phosphodiesterase (PDE), rolipram was dissolved in 10% kolliphore and IP injected into mice at 0.5 or 0.03 mg kg^−1. The use of the higher dose (that is, 0.5 mg kg^−1) was to ensure sufficient inhibition of PDE[44][45]. […] Rolipram- or vehicle (10% kolliphore)-injected mice were examined with light/dark test and AGS 30 min after drug administration.

mice = assay: Clinical panel blood test after 14 days of NB001; assay type: in vivo, mouse
Description: Mice at 3 months (+/−10 days) of age were IP injected with NB001 twice daily at 50 mg kg^−1 for 2 weeks. Clinical observations were performed twice daily and body weights were measured on various days during the dosing regimen. At the end of the dosing period, mice were killed and blood was collected for clinical pathology (Diagnostic Center for Population and Animal Health, Michigan State University). The liver and kidney were collected and fixed in 10% buffered formalin (INVIVO facility at Michigan State University).

neuropathic pain = system: neuropathic pain; design: method as in PMID 21228397; conditions: systemic administration; cited from earlier work
[1] = blood, NB001 50 mg per kg twice per day for 14 days
[2] = blood, NB001 50 mg per kg twice per day for 14 days, mean ± SEM

Compound: Nc1ncnc2c1ncn2CCNCCCCCO [NB001, 5-{[2-(6-amino-9H-purin-9-yl)ethyl]amino}-1-pentanol]
- elevated level of p-ERK1/2 in the hippocampus (ERK1/2; Fmr1 KO mice, 1 h after injection, relative to WT levels): normalized
- phosphorylation of ERK1/2 in WT mice (ERK1/2; WT mice, hippocampus): did not cause measurable changes
- elevated level of pS6K1 (at Thr421/Ser424) in the hippocampus (S6K1; Fmr1 KO mice, NB001 1 mg kg^-1 IP, 1 h after injection, relative to WT levels): normalized
- phosphorylation of S6K1 in WT mice (S6K1; WT mice, NB001 1 mg kg^-1 IP, hippocampus): did not cause measurable changes
- level of pS6K1 at PI3K target site Thr389 (S6K1; hippocampus, acute NB001 1 mg kg^-1 IP, 1 h after injection): not affected
- transition between the light and dark chambers, NB001-injected Fmr1 KO versus WT mice (WT and Fmr1 KO mice; NB001 1 mg kg^-1 IP, 1 h before testing): comparable
- time spent in the lit chamber, difference between groups (WT and Fmr1 KO mice; WT and Fmr1 KO mice, vehicle or 1 mg per kg NB001): not significant
- concentrations of various electrolytes and levels of the main toxicity-related proteins (such as aminotransferases) (mice; NB001 50 mg kg^-1 twice a day for 14 days): no effect
- ALT (mice; alanine aminotransferase, blood, NB001 50 mg per kg twice per day for 14 days, mean ± SEM): 18.50 ±0.96 U/L
- ALP (mice; alkaline phosphatase, blood, NB001 50 mg per kg twice per day for 14 days, mean ± SEM): 62.75 ±4.48 U/L
- AST (mice; aspartate aminotransferase, blood, NB001 50 mg per kg twice per day for 14 days, mean ± SEM): 32.50 ±1.55 U/L
- Hemolysis Chem (mice; [1]): Normal
- Icterus Chem (mice; [1]): Normal
- Lipemia Chem (mice; [1]): Normal
- Albumin (mice; [2]): 2.65 ± 0.13 g/dL
- Amylase (mice; [2]): 586.50 ±29.02 U/L
- Anion Gap (mice; [2]): 29.50 ± 2.36 mmol/L
- Calcium (mice; [2]): 8.83 ± 0.20 mg/dL
- Chol (mice; [2]): 100.00 ± 5.96 mg/dL
- Glucose (mice; [2]): 216.50 ± 8.50 mg/dL
- Magnesium (mice; [2]): 2.60 ± 0.11 mg/dL
- Na/K Ratio (mice; [2]): 32.00 ±1.47
- Osmolarity (mice; [2]): 321.00 ±4.00 mOs/L
- Phosphorus (mice; [2]): 6.50 ± 0.24 mg/dL
- Potassium (mice; [2]): 4.73 ± 0.22 mmol/L
- Sodium (mice; [2]): 150.50 ± 1.50 mmol/L
- Total CO2 (mice; [2]): 13.50 ± 1.04 mmol/L
- Urea Nitrogen (mice; [2]): 24.50 ± 0.87 mg/dL
- neuropathic pain (neuropathic pain): attenuates
